Results: article PMC8447191, “Peptide Amphiphilic-Based Supramolecular Structures with Anti-HIV-1 Activity” (Bioconjugate Chemistry, 2021)
*1 amine or outer side, *2 acyl side, *3 side chain or, on linkers, in order; H or OH if unused. Where a SMILES comes first, the peptide text is derived from it. Side-chain parts run from the residue outwards. [ ]: non-standard residue; d: D form. The star is where a group is joined. PEG28 = NCCOCCOCCOCCOCCOCCOCCOCCOCCOCCOCCOCCOCCOCCOCCOCCOCCOCCOCCOCCOCCOCCOCCOCCOCCOCCOCCOCCOCCC(=O)O; X2 = CC(C)CCC[C@@H](C)[C@H]1CC[C@H]2[C@@H]3CC=C4C[C@@H](OC(=O)C*)CC[C@]4(C)[C@H]3CC[C@]12C; N(octadecyl)2 = CCCCCCCCCCCCCCCCCCN(CCCCCCCCCCCCCCCCCC)*; NHOctadecyl = CCCCCCCCCCCCCCCCCCN*; PEG4 = NCCOCCOCCOCCOCCC(=O)O; Suc = O=C(CCC(=O)[*:2])[*:1]

Tests used:
HIV-1BaL = type: cell-based; conditions: HIV-1BaL, TZM-bl cells; peptide 10-0.00061 μM for 1 h at 37 °C before virus; luciferase after 48 h; sigmoid fit; mean of triplicates
Protocol: HIV-1BaL[52] was provided by the NIH AIDS Research & Reference Reagent Program (http://www.aidsreagent.org/). Viral stock was prepared by passage through activated PBMCs[53] for 11 days.
Luciferase-reporter HeLa cells stably transfected to express CD4 and CCR5; TZM-bl cells[54]−[56] were grown in Dulbecco’s Minimal Essential Medium (DMEM) (Sigma-Aldrich, Inc., St. Louis, MO) containing 10% fetal calf serum (FCS), 2 mM L-glutamine, and antibiotics (100 U of penicillin/mL, 100 μg of streptomycin/mL) at 37 °C in an atmosphere containing 5% CO2.
All inhibition assays in cellular and tissue explants models were performed using a standardized amount of virus culture supernatant normalized for infectivity. TZM-bl cells were incubated with serial dilutions of peptides (from 10 μM to 0.00061 μM) for 1 h at 37 °C, prior to challenge with HIV-1BaL. Luciferase expression (r.l.u. values) was determined after 48 h. Alternatively, tissue explants were incubated with serial dilutions of peptide (from 100 μM to 0.1 μM) for 1 h before virus (10^4 TCID50/mL) was added for 2 h. Explants were then washed four times with PBS to remove unbound virus and drug. Colorectal explants were then transferred onto gelfoam rafts (Welbeck Pharmaceuticals, UK) and cultured for 15 days as described previously[57] […]. Explants were cultured for up to 15 days in the absence of peptide. Approximately 50% of the supernatants were harvested every 2–3 days and explants were re-fed with fresh media. The extent of viral replication in tissue explants was determined by measuring the p24 antigen concentration in supernatants (INNOTEST HIV antigen mAb; Fujirebio Europe, Belgium). The extent of inhibition by each peptide was calculated. The percentage of inhibition was normalized relative to the r.l.u, for TZM-bl cells, or p24, for tissue explants, values obtained for cells or explants cultured in the absence of virus (100% inhibition) and for cells or explants infected with virus in the absence of peptide (0% inhibition). Data are the mean (±SEM) of triplicates. When a dose–response curve was obtained, IC50 and, if possible, IC95 values were calculated from sigmoid curve fits (GraphPad Prism). For all curves, R^2 is >0.7.

MTT cytotoxicity assay = type: cell-based; conditions: human, HeLa-env cells, PAs coassembled with 5% FAM, 40-2.3 μM, absorbance 560 nm
Protocol: The metabolic activity of the cell line, related to the cytotoxic effect of the compounds to be tested, is measured after 24 h using the MTT assay. This assay is based on the metabolic reduction of 3-(4,5-dimethylthiazol-2-yl)-2,5-diphenyl-2H-tetrazolium bromide (MTT), carried out by the mitochondrial enzyme succinate dehydrogenase, in a colored compound of blue color (formazan) that can be monitored by absorbance spectroscopy at 560 nm, allowing determination of the mitochondrial functionality of the treated cells.
The HeLa-env cell line is seeded in 96-well plates with an initial density of 15,000 cells per well in 100 μL of culture medium (Dulbecco’s modified Eagle’s medium, DMEM, with 10% FBS added) and incubated for 24 h at 37 °C and 5% CO2 to allow their adhesion. The cell monolayers are washed with PBS, and then 100 μL of PAs formulations (peptide amphiphiles coassembled with 5% FAM) are added in a concentration range from 40 μM to 2.3 μM. The plates are kept in incubation for further 24 h.
At the end of the incubation time, the cells are incubated for 3 h with 1 mg/mL of MTT, dissolved in culture medium without FBS, to allow the formation of formazan crystals. Subsequently, 100 μL of DMSO are added to wells, stirring the plates for 30 min at room temperature to facilitate the complete dissolution of the crystals. Finally, the absorbance at 560 nm is measured in a microplate reader.
The results are expressed as relative percentage between absorbance of PA formulations against absorbance of its DMSO controls and CC50 and CC25 values are taken from dose–response curves.

[1] = Visual stability and aspect of POPC vesicles mixed with PAs (SAXS samples); type: physicochemical; conditions: POPC 20 mM + 2 mM PA, 0.5% DMSO
Protocol: In Figure 5A,B, we show the spectra corresponding to POPC 20 mM and POPC 20 mM + 2 mM PAs (all of them in the presence of 0.5% DMSO). The band centered at 1.2 nm^–1 and the secondary band at 3.2 nm^–1 were typical of unilamellar vesicles.[35]
The incorporation of PAs had some distinct consequences. The first and more obvious one is the distinction between stable and unstable systems.

[2] = parameters: method as in 2 sources, ref 31, 32 = [31]; doi:10.1007/BF02682570; Schick M. J. ( 1966 ) Micelle formation in mixtures of nonionic and cationic detergents . J. Am. Oil Chem. Soc. 43 , 681 – 682 . 10.1007/BF02682570 . || [32]; doi:10.1016/0021-9797(70)90007-X; Barry B. W.; Morrison J. C.; Russell G. F. ( 1970 ) Prediction of the critical micelle concentration of mixtures of alkyltrimethylammonium salts . J. Colloid Interface Sci. 33 , 554 – 561 . 10.1016/ ||| ref 33, 34 = [33]; PMID 17658541; doi:10.1016/j.jcis.2007.06.010; Rodríguez J. L.; Sierra M. B.; Messina P. V.; Morini M. A.; Schulz P. C.; del Burgo P.; Junquera E.; Rodríguez A.; Aicart E. ( 2007 ) Surface and bulk properties of aqueous decyltrimethylammon || [34]; PMID 25356774; doi:10.1039/C4SM01575D; Pucci C.; Pérez L.; La Mesa C.; Pons R. ( 2014 ) Characterization and stability of catanionic vesicles formed by pseudo-tetraalkyl surfactant mixtures . Soft Matter 10 , 9657 – 9667 . 10.1039/C4SM0; conditions: cited from earlier work

Compound | IC50 (HIV-1BaL) | CC50 at 24 h (MTT cytotoxicity assay) | stability / aspect of the sample [1] | CMC [2]
CCCCCCCCCCCCCCCCCCN(CCCCCCCCCCCCCCCCCC)C(=O)CCC(=O)NCCOCCOCCOCCOCCOCCOCCOCCOCCOCCOCCOCCOCCOCCOCCOCCOCCOCCOCCOCCOCCOCCOCCOCCOCCOCCOCCOCCOCCC(=O)N[C@@H](Cc1c[nH]c2ccccc12)C(=O)N[C@H](C(=O)N[C@@H](CC(C)C)C(=O)N[C@@H](CCC(=O)O)C(=O)N[C@@H](Cc1ccc(O)cc1)C(=O)N[C@@H](CC(C)C)C(=O)N[C@@H](Cc1c[nH]c2ccccc12)C(=O)N[C@@H](CCCCN)C(=O)N[C@H](C(=O)N1CCC[C@H]1C(=O)N[C@@H](Cc1ccccc1)C(=O)N[C@@H](CC(=O)O)C(=O)N[C@@H](Cc1ccccc1)C(=O)N[C@@H](Cc1c[nH]c2ccccc12)C(=O)N[C@@H](CCCNC(=N)N)C(=O)NCC(=O)N[C@H](C(=O)N[C@H](C(N)=O)[C@@H](C)CC)C(C)C)C(C)C)[C@@H](C)CC [N-PAdialkyl] ({N(octadecyl)2-Suc-PEG28}-WILEYLWKVPFDFWRGVI-NH2) | 150 nM | > 40000 nM | precipitated rather fast and made compact flocks | –
CCCCCCCCCC[N+](C)(C)C.[Br-] [decyl trimethyl ammonium bromide] | – | – | – | 66.8 mM
CCCCCCCCCCCCCCCCCCNC(=O)CCC(=O)NCCOCCOCCOCCOCCOCCOCCOCCOCCOCCOCCOCCOCCOCCOCCOCCOCCOCCOCCOCCOCCOCCOCCOCCOCCOCCOCCOCCOCCC(=O)NCCCC[C@H](NC(=O)[C@H](Cc1c[nH]c2ccccc12)NC(=O)[C@H](CC(C)C)NC(=O)[C@H](Cc1ccc(O)cc1)NC(=O)[C@H](CCC(=O)O)NC(=O)[C@H](CC(C)C)NC(=O)[C@@H](NC(=O)[C@@H](N)Cc1c[nH]c2ccccc12)[C@@H](C)CC)C(=O)N[C@H](C(=O)N1CCC[C@H]1C(=O)N[C@@H](Cc1ccccc1)C(=O)N[C@@H](CC(=O)O)C(=O)N[C@@H](Cc1ccccc1)C(=O)N[C@@H](Cc1c[nH]c2ccccc12)C(=O)N[C@@H](CCCNC(=N)N)C(=O)NCC(=O)N[C@H](C(=O)N[C@H](C(N)=O)[C@@H](C)CC)C(C)C)C(C)C [K-PAmonoalkyl] (H-WILEYLWK([PEG28-Suc-NHOctadecyl])VPFDFWRGVI-NH2) | 370 nM | 23000 nM | milky | –
CCCCCCCCCC[N+](C)(C)CCCCCCCCCC.[Br-] [didecyl dimethyl ammonium bromide] | – | – | – | 1.4 mM
CCCCCCCCCCCC[N+](C)(C)C.[Br-] [dodecyl trimethyl ammonium bromide] | – | – | – | 14.5 mM
CC[C@H](C)[C@H](NC(=O)[C@@H](NC(=O)CNC(=O)[C@H](CCCNC(=N)N)NC(=O)[C@H](Cc1c[nH]c2ccccc12)NC(=O)[C@H](Cc1ccccc1)NC(=O)[C@H](CC(=O)O)NC(=O)[C@H](Cc1ccccc1)NC(=O)[C@@H]1CCCN1C(=O)[C@@H](NC(=O)[C@H](CCCCN)NC(=O)[C@H](Cc1c[nH]c2ccccc12)NC(=O)[C@H](CC(C)C)NC(=O)[C@H](Cc1ccc(O)cc1)NC(=O)[C@H](CCC(=O)O)NC(=O)[C@H](CC(C)C)NC(=O)[C@@H](NC(=O)[C@H](Cc1c[nH]c2ccccc12)NC(=O)CCOCCOCCOCCOCCOCCOCCOCCOCCOCCOCCOCCOCCOCCOCCOCCOCCOCCOCCOCCOCCOCCOCCOCCOCCOCCOCCOCCOCCNC(=O)[C@@H](N)CSCC(=O)O[C@H]1CC[C@@]2(C)C(=CC[C@H]3[C@@H]4CC[C@H]([C@H](C)CCCC(C)C)[C@@]4(C)CC[C@@H]32)C1)[C@@H](C)CC)C(C)C)C(C)C)C(N)=O [N-PAchol] (H-C(X2)[PEG28]WILEYLWKVPFDFWRGVI-NH2) | 120 nM | > 40000 nM | milky | –
CCCCCCCCCCCCCCCC[N+](C)(C)C [hexadecyl trimethyl ammonium bromide] | – | – | – | 0.8 mM
CCCCCCCCCCCCCCCCCCN(CCCCCCCCCCCCCCCCCC)C(=O)CCC(=O)NCCOCCOCCOCCOCCC(=O)N[C@@H](Cc1c[nH]c2ccccc12)C(=O)N[C@H](C(=O)N[C@@H](CC(C)C)C(=O)N[C@@H](CCC(=O)O)C(=O)N[C@@H](Cc1ccc(O)cc1)C(=O)N[C@@H](CC(C)C)C(=O)N[C@@H](Cc1c[nH]c2ccccc12)C(=O)N[C@@H](CCCCN)C(=O)N[C@H](C(=O)N1CCC[C@H]1C(=O)N[C@@H](Cc1ccccc1)C(=O)N[C@@H](CC(=O)O)C(=O)N[C@@H](Cc1ccccc1)C(=O)N[C@@H](Cc1c[nH]c2ccccc12)C(=O)N[C@@H](CCCNC(=N)N)C(=O)NCC(=O)N[C@H](C(=O)N[C@H](C(N)=O)[C@@H](C)CC)C(C)C)C(C)C)[C@@H](C)CC [PA2PEG3] ({N(octadecyl)2-Suc-PEG4}-WILEYLWKVPFDFWRGVI-NH2) | – | > 40000 nM | – | –
CCCCCCCCCCCCCCCCCCNC(=O)CCC(=O)NCCOCCOCCOCCOCCC(=O)N[C@@H](Cc1c[nH]c2ccccc12)C(=O)N[C@H](C(=O)N[C@@H](CC(C)C)C(=O)N[C@@H](CCC(=O)O)C(=O)N[C@@H](Cc1ccc(O)cc1)C(=O)N[C@@H](CC(C)C)C(=O)N[C@@H](Cc1c[nH]c2ccccc12)C(=O)N[C@@H](CCCCN)C(=O)N[C@H](C(=O)N1CCC[C@H]1C(=O)N[C@@H](Cc1ccccc1)C(=O)N[C@@H](CC(=O)O)C(=O)N[C@@H](Cc1ccccc1)C(=O)N[C@@H](Cc1c[nH]c2ccccc12)C(=O)N[C@@H](CCCNC(=N)N)C(=O)NCC(=O)N[C@H](C(=O)N[C@H](C(N)=O)[C@@H](C)CC)C(C)C)C(C)C)[C@@H](C)CC [PA1PEG3] ({NHOctadecyl-Suc-PEG4}-WILEYLWKVPFDFWRGVI-NH2) | 230 nM | > 40000 nM | – | –
CC[C@H](C)[C@H](NC(=O)[C@@H](NC(=O)CNC(=O)[C@H](CCCNC(=N)N)NC(=O)[C@H](Cc1c[nH]c2ccccc12)NC(=O)[C@H](Cc1ccccc1)NC(=O)[C@H](CC(=O)O)NC(=O)[C@H](Cc1ccccc1)NC(=O)[C@@H]1CCCN1C(=O)[C@@H](NC(=O)[C@H](CCCCN)NC(=O)[C@H](Cc1c[nH]c2ccccc12)NC(=O)[C@H](CC(C)C)NC(=O)[C@H](Cc1ccc(O)cc1)NC(=O)[C@H](CCC(=O)O)NC(=O)[C@H](CC(C)C)NC(=O)[C@@H](NC(=O)[C@H](Cc1c[nH]c2ccccc12)NC(=O)CCOCCOCCOCCOCCNC(=O)[C@@H](N)CSCC(=O)O[C@H]1CC[C@@]2(C)C(=CC[C@H]3[C@@H]4CC[C@H]([C@H](C)CCCC(C)C)[C@@]4(C)CC[C@@H]32)C1)[C@@H](C)CC)C(C)C)C(C)C)C(N)=O [PA3PEG3] (H-C(X2)[PEG4]WILEYLWKVPFDFWRGVI-NH2) | 2010 nM | > 40000 nM | – | –
